Results taken from patent US20250154134A1, “COMPOUND AS FAK INHIBITOR AND USE THEREOF” (WIGEN BIOMEDICINE TECHNOLOGY (SHANGHAI) CO., LTD., priority 2022, published 2025).

Experiments:
FAK recombinant protein = FAK recombinant protein (Homo sapiens (Human), UniProt Q05397); assay: Inhibitory activity against FAK enzyme (HTRF, TK substrate); type: biochemical
Description: A compound serially diluted with DMSO was mixed with a FAK recombinant protein. After the mixture was left to stand at room temperature for 10 min, a biotin-labeled TK substrate (TK) and ATP were added. […] The inhibition percentage and IC50 of the compound were calculated compared to the DMSO control group.

PC3 cells [1] = assay: PC3 cell proliferation, 2D activity assay (Cell Titer-Lumi, 72 h); type: cell-based, human
Description: (§1) 2D activity assay: 1200 PC3 cells were seeded in a 96-well plate. After overnight adherence culture, A compound serially diluted was added. […] The growth of the cells was evaluated, and the IC50 of the compound inhibiting cell growth was calculated. 3D activity assay: PC3 cells were seeded in a 96-well plate at 1200 cells/well, and 3D culture was performed. 14 days after a compound serially diluted was added, the growth of the cells was measured. The inhibition percentage and IC50 of the compound were calculated compared to the DMSO control group.

PC3 cells [2] = assay: PC3 cell proliferation, 3D activity assay (3D culture, 14 days); type: cell-based, human; conditions: read-out: 3D inhibitory activity against PC3 cells IC50
Description: as §1

[3] = Homo sapiens, PC-3, read-out: 2D inhibitory activity against PC3 cells IC50
[4] = read-out: 2D inhibitory activity against PC3 cells IC50

Sequence of FAK recombinant protein (Q05397 whole entry): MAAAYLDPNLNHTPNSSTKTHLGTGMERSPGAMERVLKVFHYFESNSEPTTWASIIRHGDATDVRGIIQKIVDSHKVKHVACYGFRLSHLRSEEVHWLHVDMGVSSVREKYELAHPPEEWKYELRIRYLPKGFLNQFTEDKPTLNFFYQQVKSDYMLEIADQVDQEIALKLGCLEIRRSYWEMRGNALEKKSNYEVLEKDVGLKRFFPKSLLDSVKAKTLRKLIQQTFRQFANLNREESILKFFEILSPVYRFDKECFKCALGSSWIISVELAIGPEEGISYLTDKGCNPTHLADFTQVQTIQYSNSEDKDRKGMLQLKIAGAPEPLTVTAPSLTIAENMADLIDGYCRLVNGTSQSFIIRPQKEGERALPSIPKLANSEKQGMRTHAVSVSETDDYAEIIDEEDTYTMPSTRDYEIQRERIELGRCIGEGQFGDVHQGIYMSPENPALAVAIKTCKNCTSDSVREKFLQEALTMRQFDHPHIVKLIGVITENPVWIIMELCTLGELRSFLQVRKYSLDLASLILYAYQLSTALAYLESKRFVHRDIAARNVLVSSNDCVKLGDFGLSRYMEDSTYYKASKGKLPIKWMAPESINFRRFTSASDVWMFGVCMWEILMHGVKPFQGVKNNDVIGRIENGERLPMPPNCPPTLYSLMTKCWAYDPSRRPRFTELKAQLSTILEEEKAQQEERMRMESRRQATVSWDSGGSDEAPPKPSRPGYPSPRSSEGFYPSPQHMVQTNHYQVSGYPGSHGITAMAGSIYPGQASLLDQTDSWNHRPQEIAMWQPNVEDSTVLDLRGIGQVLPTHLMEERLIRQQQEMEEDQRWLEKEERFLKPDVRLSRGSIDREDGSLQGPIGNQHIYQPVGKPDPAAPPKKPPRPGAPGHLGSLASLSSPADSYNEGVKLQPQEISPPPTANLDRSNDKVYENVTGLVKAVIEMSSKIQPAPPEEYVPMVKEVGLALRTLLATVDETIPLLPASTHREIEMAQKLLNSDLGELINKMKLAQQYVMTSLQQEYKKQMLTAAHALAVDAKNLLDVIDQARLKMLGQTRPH

Row | SMILES | IC50 (FAK recombinant protein) [nM] | IC50 (PC3 cells [1]; [3]) [nM] | IC50 (PC3 cells [2]; Homo sapiens, PC-3, 336 h) [nM] | IC50 (PC3 cells [1]; [4]) [nM] | IC50 (PC3 cells [2]) [nM]
1 | CNC(=O)c1ccc(Nc2ncc(C(F)(F)F)c(Oc3cccc4c3C(=O)N(C)C43CC3)n2)c(OC)c1 [Compound 2] | < 20 | > 2000 | 5 to 50 | – | –
2 | COc1cc(C(=O)NC2CCN(C)CC2)c(Cl)cc1Nc1ncc(C(F)(F)F)c(Oc2cccc3c2C(=O)N(C)C32CC2)n1 [Compound 5] | < 20 | > 2000 | < 5 | – | –
3 | COc1cc(C(=O)NC2(C)CCN(C)CC2)c(F)cc1Nc1ncc(C(F)(F)F)c(Oc2cccc3c2C(=O)N(C)C32CC2)n1 [Compound 7] | < 20 | > 2000 | < 5 | – | –
4 | COc1cc(C(=O)NC2CC3(CCN(C)CC3)C2)ccc1Nc1ncc(C(F)(F)F)c(Oc2cccc3c2C(=O)N(C)C32CC2)n1 [Compound 9] | < 20 | > 2000 | < 5 | – | –
5 | COc1cc(C(=O)NC2CCC3(CC2)CN(C)C3)c(F)cc1Nc1ncc(C(F)(F)F)c(Oc2cccc3c2C(=O)N(C)C32CC2)n1 [Compound 10] | < 20 | > 2000 | 5 to 50 | – | –
6 | COc1cc(C(=O)NC2CCC3(CC2)CN(C)C3)ccc1Nc1ncc(C(F)(F)F)c(Oc2cccc3c2C(=O)N(C)C32CC2)n1 [Compound 11] | < 20 | > 2000 | 5 to 50 | – | –
7 | COc1cc(C(=O)NC2CCC23CCN(C)CC3)c(F)cc1Nc1ncc(C(F)(F)F)c(Oc2cccc3c2C(=O)N(C)C32CC2)n1 (stereo not shown) [Compound 12] | < 20 | > 2000 | < 5 | – | –
8 | COc1cc(C(=O)NC2CCC23CCN(C)CC3)ccc1Nc1ncc(C(F)(F)F)c(Oc2cccc3c2C(=O)N(C)C32CC2)n1 (stereo not shown) [Compound 13] | < 20 | > 2000 | < 5 | – | –
9 | COc1cc(C(=O)NC2CCC3(CC2)CCN3C)c(F)cc1Nc1ncc(C(F)(F)F)c(Oc2cccc3c2C(=O)N(C)C32CC2)n1 (stereo not shown) [Compound 14] | < 20 | > 2000 | < 5 | – | –
10 | COc1cc(C(=O)NC2CCC3(CC2)CCN3C)ccc1Nc1ncc(C(F)(F)F)c(Oc2cccc3c2C(=O)N(C)C32CC2)n1 (stereo not shown) [Compound 15] | < 20 | > 2000 | < 5 | – | –
11 | COc1cc(C(=O)NC2COC3(CCN(C)CC3)C2)c(F)cc1Nc1ncc(C(F)(F)F)c(Oc2cccc3c2C(=O)N(C)C32CC2)n1 (stereo not shown) [Compound 16] | < 20 | > 2000 | < 5 | – | –
12 | COc1cc(C(=O)NC2COC3(CCN(C)CC3)C2)ccc1Nc1ncc(C(F)(F)F)c(Oc2cccc3c2C(=O)N(C)C32CC2)n1 (stereo not shown) [Compound 17] | < 20 | > 2000 | < 5 | – | –
13 | COc1cc(C(=O)NC2CCC3(CCN(C)CC3)C2)c(F)cc1Nc1ncc(C(F)(F)F)c(Oc2cccc3c2C(=O)N(C)C32CC2)n1 (stereo not shown) [Compound 18] | < 20 | > 2000 | 5 to 50 | – | –
14 | COc1cc(C(=O)NC2CCC3(CCN(C)CC3)C2)ccc1Nc1ncc(C(F)(F)F)c(Oc2cccc3c2C(=O)N(C)C32CC2)n1 (stereo not shown) [Compound 19] | < 20 | > 2000 | 5 to 50 | – | –
15 | COc1cc(C(=O)NC2CCC3(CC2)CCN(C)C3)c(F)cc1Nc1ncc(C(F)(F)F)c(Oc2cccc3c2C(=O)N(C)C32CC2)n1 (stereo not shown) [Compound 20] | < 20 | > 2000 | < 5 | – | –
16 | COc1cc(C(=O)NC2CCC3(CC2)CCN(C)C3)ccc1Nc1ncc(C(F)(F)F)c(Oc2cccc3c2C(=O)N(C)C32CC2)n1 (stereo not shown) [Compound 21] | < 20 | > 2000 | < 5 | – | –
17 | COc1cc(C(=O)NC2CCC3(CC2)CCN(C)CC3)c(F)cc1Nc1ncc(C(F)(F)F)c(Oc2cccc3c2C(=O)N(C)C32CC2)n1 [Compound 22] | < 20 | > 2000 | 5 to 50 | – | –
18 | COc1cc(C(=O)NC2CCC3(CC2)CCN(C)CC3)ccc1Nc1ncc(C(F)(F)F)c(Oc2cccc3c2C(=O)N(C)C32CC2)n1 [Compound 23] | < 20 | > 2000 | 5 to 50 | – | –
19 | COc1cc(C(=O)NC2CCC3(CCN(C)C3)C2)c(F)cc1Nc1ncc(C(F)(F)F)c(Oc2cccc3c2C(=O)N(C)C32CC2)n1 (stereo not shown) [Compound 24] | < 20 | > 2000 | 5 to 50 | – | –
20 | COc1cc(C(=O)NC2CCC3(CCN(C)C3)C2)ccc1Nc1ncc(C(F)(F)F)c(Oc2cccc3c2C(=O)N(C)C32CC2)n1 (stereo not shown) [Compound 25] | < 20 | > 2000 | < 5 | – | –
21 | COc1cc(C(=O)NC2COC3(CCN(C)C3)C2)c(F)cc1Nc1ncc(C(F)(F)F)c(Oc2cccc3c2C(=O)N(C)C32CC2)n1 (stereo not shown) [Compound 26] | < 20 | > 2000 | < 5 | – | –

Row | SMILES | IC50 (FAK recombinant protein) [nM] | IC50 (PC3 cells [1]; [3]) [nM] | IC50 (PC3 cells [2]; Homo sapiens, PC-3, 336 h) [nM] | IC50 (PC3 cells [1]; [4]) [nM] | IC50 (PC3 cells [2]) [nM]
22 | COc1cc(C(=O)NC2CCN3CCN(C)C3C2)ccc1Nc1ncc(C(F)(F)F)c(Oc2cccc3c2C(=O)N(C)C32CC2)n1 (stereo not shown) [Compound 28] | < 20 | > 2000 | 5 to 50 | – | –
23 | COc1cc(C(=O)NC2CCN3CCOC3C2)ccc1Nc1ncc(C(F)(F)F)c(Oc2cccc3c2C(=O)N(C)C32CC2)n1 (stereo not shown) [Compound 29] | < 20 | > 2000 | < 5 | – | –
24 | COc1cc(C(=O)NC2CCN3CCN=C3C2)ccc1Nc1ncc(C(F)(F)F)c(Oc2cccc3c2C(=O)N(C)C32CC2)n1 (stereo not shown) [Compound 30] | < 20 | > 2000 | 5 to 50 | – | –
25 | COc1cc(C(=O)NC2CCn3ccnc3C2)ccc1Nc1ncc(C(F)(F)F)c(Oc2cccc3c2C(=O)N(C)C32CC2)n1 (stereo not shown) [Compound 31] | < 20 | > 2000 | 5 to 50 | – | –
26 | COc1cc(C(=O)NC2CCn3cnnc3C2)ccc1Nc1ncc(C(F)(F)F)c(Oc2cccc3c2C(=O)N(C)C32CC2)n1 (stereo not shown) [Compound 32] | < 20 | > 2000 | 5 to 50 | – | –
27 | COc1cc(C(=O)NC2CCN(C)CC2F)ccc1Nc1ncc(C(F)(F)F)c(Oc2cccc3c2C(=O)N(C)C32CC2)n1 (stereo not shown) [Compound 33] | < 20 | > 2000 | < 5 | – | –
28 | COc1cc(C(=O)NC2CCN(C)CC2OC)ccc1Nc1ncc(C(F)(F)F)c(Oc2cccc3c2C(=O)N(C)C32CC2)n1 (stereo not shown) [Compound 34] | < 20 | > 2000 | < 5 | – | –
29 | COc1cc(C(=O)NC2CCNCC2)ccc1Nc1ncc(C(F)(F)F)c(Oc2cccc3c2C(=O)N(C)C32CC2)n1 [Compound 35, 3-Methoxy-4-((4-((2′-methyl-3′-oxospiro[cyclopropane-1,1′-isoindolin]-4′-yl)oxy)-5-(trifluoromethyl)pyrimidin-2-yl)amino)-N-(piperidin-4-yl)benzamide] | – | > 2000 | < 5 | – | –
30 | CCN1CCC(NC(=O)c2ccc(Nc3ncc(C(F)(F)F)c(Oc4cccc5c4C(=O)N(C)C54CC4)n3)c(OC)c2)CC1 [Compound 37] | < 20 | > 2000 | < 5 | – | –
31 | COc1cc(C(=O)NC2CCN(CS(C)(=O)=O)CC2)ccc1Nc1ncc(C(F)(F)F)c(Oc2cccc3c2C(=O)N(C)C32CC2)n1 [Compound 38] | < 20 | > 2000 | 5 to 50 | – | –
32 | COc1cc(C(=O)NC2CCN(CC(N)=O)CC2)ccc1Nc1ncc(C(F)(F)F)c(Oc2cccc3c2C(=O)N(C)C32CC2)n1 [Compound 39] | < 20 | > 2000 | < 5 | – | –
33 | [2H]C([2H])([2H])N1CCC(NC(=O)c2cc(OC)c(Nc3ncc(C(F)(F)F)c(Oc4cccc5c4C(=O)N(C)C54CC4)n3)cc2F)CC1 [Compound 40] | < 20 | > 2000 | < 5 | – | –
34 | CCN1CCC(NC(=O)c2cc(OC)c(Nc3ncc(C(F)(F)F)c(Oc4cccc5c4C(=O)N(C)C54CC4)n3)cc2F)CC1 [Compound 41] | < 20 | > 2000 | < 5 | – | –
35 | [2H]C([2H])([2H])N1CCC(C)(NC(=O)c2ccc(Nc3ncc(C(F)(F)F)c(Oc4cccc5c4C(=O)N(C)C54CC4)n3)c(OC)c2)CC1 [Compound 42] | < 20 | > 2000 | < 5 | – | –
36 | [2H]C([2H])([2H])N1CCC(C)(NC(=O)c2cc(OC)c(Nc3ncc(C(F)(F)F)c(Oc4cccc5c4C(=O)N(C)C54CC4)n3)cc2F)CC1 [Compound 43] | < 20 | > 2000 | < 5 | – | –
37 | COc1cc(C(=O)NC2CC3(CCNCC3)C2)ccc1Nc1ncc(C(F)(F)F)c(Oc2cccc3c2C(=O)N(C)C32CC2)n1 [Compound 44] | < 20 | > 2000 | 5 to 50 | – | –
38 | [2H]C([2H])([2H])N1CCC2(CC1)CC(NC(=O)c1ccc(Nc3ncc(C(F)(F)F)c(Oc4cccc5c4C(=O)N(C)C54CC4)n3)c(OC)c1)C2 [Compound 45] | < 20 | > 2000 | < 5 | – | –
39 | COc1cc(C(=O)N2CCC3(CCN(C)C3)C2)ccc1Nc1ncc(C(F)(F)F)c(Oc2cccc3c2C(=O)N(C)C32CC2)n1 (stereo not shown) [Compound 58] | – | – | – | > 2000 | 5 to 50
40 | COc1cc(C(=O)NC2(C)CCN(C)CC2)ccc1Nc1ncc(Cl)c(Oc2cccc3c2C(=O)N(C)C32CC2)n1 [Compound 118] | – | > 2000 | 5 to 50 | – | –
41 | COc1cc(N2CC3CCN(C)C3C2)ccc1Nc1ncc(Cl)c(Oc2cccc3c2C(=O)N(C)C32CC2)n1 (stereo not shown) [Compound 171] | – | – | – | > 2000 | 5 to 50
42 | COc1cc(C(=O)NC2CCN(C)CC2)c(F)cc1Nc1ncc(Cl)c(Oc2cccc3c2C(=O)N(C)C32CCCC2)n1 [Compound 209] | – | > 2000 | > 50 | – | –
